Converted amounts (≈) assume the structure as drawn. Read-outs that look alike come from different tables or passages of the source. Bounds are passed on as bounds.

Format in all cases: physicochemical
The nature of data set [1]: Solubility assessment, visually estimated by dosing solvent aliquots into 10.0 mg API. As to conditions: thermodynamic from solid. The procedure: Solubility was assessed in an array of diverse solvents in order to facilitate the selection of solvent systems and corresponding dosing strategies for the subsequent crystal-form screening experiments.
A short description of data set [2]: Relative stability (competitive ripening) study of Forms A and B. As to conditions: for Final Form Observed: seven days, suspension of ~10 mg Form A and ~10 mg Form B. The procedure: Saturated suspensions of Form A were prepared by stirring excess Form A in the specified solvent system. The suspension was stirred overnight at 25° C. A clarifying filtration was performed and the filtrate was added to a 2 mL vial containing ˜10 mg of Form A and ˜10 mg of Form B. The resulting suspensions were stirred at 25° C. for seven days, isolated, dried under vacuum for 45 minutes, and analyzed by FT-Raman.

The nature of data set [3]: Characterization of crystal forms: behaviour under ambient conditions.
The nature of data set [4]: Moisture sorption/desorption isotherms (DVS). The settings on record: 25° C., first sorption cycle 0 to 75% RH, desolvation with solvent exchange induced by water vapour. The procedure:
Moisture sorption/desorption isotherms. All experiments were performed on a DVS-1 automated gravimetric vapour sorption analyser (Surface Measurement Systems Ltd., London, UK). The DVS measures the uptake and loss of vapour gravimetrically using a Cahn D200 recording ultra-microbalance with a mass resolution of ±0.1 μg. A controlled relative humidity is generated by mixing different proportions of dry and water saturated carrier gas streams (monitored by mass flow controllers). The temperature was maintained constant, ±0.1° C., by enclosing the entire system in a temperature-controlled incubator. A sample size around 10 mg was used. Prior to being exposed to any water vapour the samples were dried at 0% relative humidity (RH) to remove any surface water present and establish a dry, baseline mass. […] Two consecutive cycles were recorded. From the complete moisture sorption and desorption profile an isotherm was calculated using the DVS Advanced Analysis Suite v3.6. […]
DVS curves are carried out at 25° C. on hexafluoroisopropanol solvate (FIG. 18). After 6 hours under nitrogen a weight loss of 5% is recorded (a partial desolvation is observed with a pre-treatment at 25° C.). During the first sorption cycle, an important weight loss is recorded between 0 and 75% RH (around 30%). […]

Regarding `Cc1cnc(Nc2ccc(OCCN3CCCC3)cc2)nc1Nc1cccc(S(=O)(=O)NC(C)(C)C)c1` [Form A], the solubility is at most 5000 µg/mL in data set [1] (all other solvents evaluated (of 12; not DMSO, MeOH, water), organic solvent or mixture, in all other solvents evaluated, read-out: low solubility); below 5000 µg/mL in data set [1] (organic solvent or mixture, DCM, 40° C., read-out: Solubility at 40° C.); below 5000 µg/mL in data set [1] (organic solvent or mixture, DCM, RT, read-out: Solubility at RT); above 400000 µg/mL in data set [1] (organic solvent or mixture, DMSO, RT, read-out: Solubility at RT); below 5000 µg/mL in data set [1] (organic solvent or mixture, EtOAc, 40° C., read-out: Solubility at 40° C.); below 5000 µg/mL in data set [1] (organic solvent or mixture, EtOAc, RT, read-out: Solubility at RT). Moreover, the solubility in data set [1] (organic solvent or mixture, IPA, 40° C., read-out: Solubility at 40° C.) was below 5000 µg/mL; in data set [1] (organic solvent or mixture, IPA, RT, read-out: Solubility at RT), below 5000 µg/mL; in data set [1] (organic solvent or mixture, IPA:water (9:1) v/v, 40° C., read-out: Solubility at 40° C.), above 5000 µg/mL; in data set [1] (organic solvent or mixture, IPA:water (9:1) v/v, RT, read-out: Solubility at RT), below 5000 µg/mL; in data set [1] (organic solvent or mixture, IPE, 40° C., read-out: Solubility at 40° C.) it was below 5000 µg/mL; in data set [1] (organic solvent or mixture, IPE, RT, read-out: Solubility at RT) it was below 5000 µg/mL. Besides, the solubility in data set [1] (organic solvent or mixture, MTBE, 40° C., read-out: Solubility at 40° C.) was below 5000 µg/mL; in data set [1] (organic solvent or mixture, MTBE, RT, read-out: Solubility at RT), below 5000 µg/mL; in data set [1] (organic solvent or mixture, MeCN, 40° C., read-out: Solubility at 40° C.), below 5000 µg/mL; in data set [1] (organic solvent or mixture, MeCN, RT, read-out: Solubility at RT), below 5000 µg/mL; in data set [1] (organic solvent or mixture, MeOH, RT, read-out: Solubility at RT), above 400000 µg/mL; in data set [1] (organic solvent or mixture, THF, 40° C., read-out: Solubility at 40° C.), below 5000 µg/mL. Besides, the solubility is below 5000 µg/mL in data set [1] (organic solvent or mixture, THF, RT, read-out: Solubility at RT); below 5000 µg/mL in data set [1] (organic solvent or mixture, Toluene, 40° C., read-out: Solubility at 40° C.); below 5000 µg/mL in data set [1] (organic solvent or mixture, Toluene, RT, read-out: Solubility at RT); 100000 to 400000 µg/mL (≈ 191 to 762 mM) in data set [1] (Water, RT, read-out: Solubility at RT); above 100000 µg/mL in data set [1] (in DMSO, MeOH, and water). Also, in data set [2] (25° C., over the entire water activity range), the “relative stability of hydrates” value is “stable hydrate”. For the same molecule, the “Final Form Observed” value in data set [2] (Acetone:Water (83:17), water activity 0.75, 25 °C) was “Form A”; in data set [2] (Ethanol, water activity 0, 25 °C) it was “Form A”; in data set [2] (Methanol:Water (73:27), water activity 0.5, 25 °C), “Form A”; in data set [2] (Water, water activity 1, 25 °C) it was “Form A”.

`Cc1cnc(Nc2ccc(OCCN3CCCC3)cc2)nc1Nc1cccc(S(=O)(=O)NC(C)(C)C)c1` [Form I]: the “physical stability of the solvate” value in data set [3] is reported as “efflorescent solvate”.

In the case of `Cc1cnc(Nc2ccc(OCCN3CCCC3)cc2)nc1Nc1cccc(S(=O)(=O)NC(C)(C)C)c1` [Form H], the “form change during DVS” value in data set [4] was “transform into Form B”.

A word on the solubility: it is the concentration that dissolves in the medium under given conditions.

Values taken from patent publication US20220332706A1, “CRYSTALLINE FORMS OF A JAK2 INHIBITOR” (Impact Biomedicines, Inc., priority 2019, published 2022).
